Measurements taken from patent publication US9376466B2, “Peptide inhibitors of caspase 2 activation” (The Trustees of Columbia University in the city of New York, priority 2011, dated 2016).
“Also recorded” adds a separate entry of the source.

Key:
Assay type in all cases: cell-based, rat
[1] = test system: primary hippocampal neurons; experiment: Cell survival assay, primary hippocampal neurons treated with Aβ1-42; conditions: AFDAFC-Pen1 final concentration 80 nM, survival quantified after 1 day, n=3, FIG. 7
Method: Peptide Preparation: AFDAFC (SEQ ID NO: 1) was synthesized by Multiple Peptide Systems (San Diego, Calif.). Lyophilized peptide was resuspended in sterile ddH2O and linked in equimolar amounts with Pen1 (Troy et al. Proc. Natl. Acad. Sci. U.S.A. 93: 5635-5640 (1996)) for a stock concentration of 80 μM. AFDAFC-Pen1 was used at a final concentration of 80 nM.
Embryonic day 18 rat fetuses were removed from CO2-sacrificed pregnant Sprague Dawley rats (Charles River). The hippocampus was dissected out from surrounding tissue and the meninges completely removed. Pooled tissue was mechanically dissociated in a serum-free defined medium. […]
Cell Survival Assay. Hippocampal or sympathetic neuron survival was scored as previously reported (Troy et al., J Neurosci. 17:1911-8, 1997). […] Intact nuclei were quantified using a hemacytometer. Triplicate wells were scored and values reported as mean±SEM. Significance was calculated by Student's t-test. For sympathethic neurons, each culture was scored as numbers of living, phase-bright neurons counted in the same field at various times. Three replicate cultures were assessed for each condition, and data are normalized to numbers of neurons present in each culture at the time of Aβ1-42 addition or NGF deprivation and reported as mean±SEM.

[2] = test system: Caspase 2 bound to endogenous RAIDD; experiment: Caspase 2 and RAIDD co-immunoprecipitation in primary hippocampal neurons; conditions: primary hippocampal neurons treated with AFDAFC-Pen1 prior to Aβ1-42; Western blot; FIG. 13
Method: Caspase 2 and RAIDD Co-Immunoprecipitation (IP). Mouse IgG magnetized beads (Invitrogen) were pre-coated with a RAIDD antibody (anti-CRADD; Abnova) for 2 hrs at 4° C. on a rotator. 2 μg of antibody was used per 30 μl of beads. Primary rat hippocampal neurons were treated with Aβ1-42 (3 μM) for 1 or 2 hrs. Cell lysates were prepared using CHAPS lysis buffer. 70-120 μg of lysates were loaded onto anti-CRADD pre-coated beads and incubated overnight at 4° C. on a rotator. Following the overnight incubation, the captured proteins were boiled off the beads at 100° C. for 5 mins. The immunoprecipitated samples, along with inputs, were then subjected to Western blotting using affinity purified polyclonal anti-Caspase 2.

Bim = experiment: Western blot of Bim protein in hippocampal neuron cultures; conditions: primary hippocampal neurons treated with AFDAFC-Pen1 prior to Aβ1-42; FIG. 14
Method: Cell Culture of primary hippocampal neuron cultures. Neurons were cultured as previously described (Akpan et al., J Neurosci. 31:8894-904, 2011). Briefly, embryonic day 18 rat fetuses were removed from CO2-sacrificed pregnant Sprague Dawley rats (Charles River). The hippocampus was dissected from surrounding tissue and the meninges removed. Pooled hippocampi were mechanically dissociated in a serum-free defined medium. Medium consisted of a 1:1 mixture of Eagle's MEM and Ham's F12 (Invitrogen) supplemented with glucose (6 mg/ml), insulin (25 μg/ml), selenium (30 nM), progesterone (20 nM), transferrin (100 μg/ml), putrescine (60 μg/ml), penicillin (0.5 U/ml), and streptomycin (0.5 μg/ml). Dissociated cells were grown on poly-D-lysine coated plates or 8-well chamber slides. Neurons were cultured for 7 days prior to experimental treatments.
Western Blot. Hippocampal neurons or sympathetic neurons were lysed in CHAPS lysis buffer ([…], 50 mM HEPES, 0.1% CHAPS, protease inhibitor tablet, pH 7.4). Protein concentration was determined using BioRad protein assay reagent (Bio-Rad). Equal amounts of protein were loaded onto 10% or 12% polyacrylamide gels. […] Proteins were detected using either enhanced chemiluminescence (Thermo Scientific) or fluorescence using the Odyssey infrared imaging system (LI-COR Biosciences). The relative densities of immunopositive bands were analyzed using ImageJ.

## AFDAFC-Pen1: Caspase 2 activation inhibitory peptide AFDAFC (SEQ ID NO: 1) conjugated to cell-penetrating peptide Pen1 (RQIKIWFQNRRMKWKK)
[1]
  Aβ-mediated cell death (survival): abrogates Aβ-mediated cell death
[2]
  Aβ1-42-induced binding of Caspase 2 to RAIDD: reduces Aβ1-42-induced binding of Caspase 2 to RAIDD
Bim
  Bim induction elicited by Aβ1-42 (protein level): preventing Bim induction; also recorded: prevents Bim induction
